According to ChEMBL document CHEMBL1201862, “PubChem BioAssay data set” (2004):
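Dose response: 5 concentrations. Exposure: 48 h. Format: 96-well plates. Endpoint: linear interpolation; highest concentration if not reached. Abbreviation: GI50, concentration required for 50% inhibition of growth.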 Activity calls are given as the source filed them. Rule as the data show it: active = GI50 up to about 1.1 µM and inactive = higher.

Tests used:
Experiment in all cases: NCI-60 cell line screen, 48 h
ACHN = system: ACHN
SK-OV-3 = system: SK-OV-3
UACC-257 = system: UACC-257
KM12 = system: KM12
HT-29 = system: HT-29
CAKI-1 = system: CAKI-1
COLO 205 = system: COLO 205
M14 = system: M14
HCT-15 = system: HCT-15
SK-MEL-28 = system: SK-MEL-28
HOP-62 = system: HOP-62
OVCAR-8 = system: OVCAR-8
NCI-H522 = system: NCI-H522
SK-MEL-5 = system: SK-MEL-5
SK-MEL-2 = system: SK-MEL-2
NCI-H226 = system: NCI-H226
UO-31 = system: UO-31
786-0 = system: 786-0
BT-549 = system: BT-549
T47D = system: T47D

Structure (SMILES)	GI50 (ACHN)	GI50 (SK-OV-3)	GI50 (UACC-257)	GI50 (KM12)	GI50 (HT-29)	GI50 (CAKI-1)	GI50 (COLO 205)	GI50 (M14)	GI50 (HCT-15) [µM]	GI50 (SK-MEL-28)	GI50 (HOP-62)	GI50 (OVCAR-8)	GI50 (NCI-H522)	GI50 (SK-MEL-5)	GI50 (SK-MEL-2)	GI50 (NCI-H226)	GI50 (UO-31)	GI50 (786-0)	GI50 (BT-549)	GI50 (T47D)
COc1cc2c(oc(=O)c3c4occc4cc(OC)c23)c2cccc(OCc3ccccc3)c12	> 100 µM (inactive)	> 100 µM (inactive)	> 100 µM (inactive)	> 100 µM (inactive)	> 100 µM (inactive)	> 100 µM (inactive)	> 100 µM (inactive)	80.2 µM (inactive)	> 100	49.4 µM (inactive)	> 100 µM (inactive)	> 100 µM (inactive)	> 100 µM (inactive)	> 100 µM (inactive)	> 100 µM (inactive)	> 100 µM (inactive)	> 100 µM (inactive)	41.4 µM (inactive)	–	–
COc1ccc(NC(=S)N/N=C/c2c(C)n(C)n(-c3ccccc3)c2=O)cc1	34.7 µM (inactive)	28.6 µM (inactive)	> 100 µM (inactive)	> 100 µM (inactive)	69.5 µM (inactive)	22 µM (inactive)	> 100 µM (inactive)	> 100 µM (inactive)	> 100	64.1 µM (inactive)	19.4 µM (inactive)	20.7 µM (inactive)	–	> 100 µM (inactive)	32.1 µM (inactive)	35.6 µM (inactive)	26.4 µM (inactive)	24.1 µM (inactive)	43.7 µM (inactive)	–
CCOC1C=CCCO1 (stereo not given)	> 100 µM (inactive)	> 100 µM (inactive)	> 100 µM (inactive)	> 100 µM (inactive)	> 100 µM (inactive)	> 100 µM (inactive)	> 100 µM (inactive)	> 100 µM (inactive)	> 100	> 100 µM (inactive)	> 100 µM (inactive)	> 100 µM (inactive)	> 100 µM (inactive)	> 100 µM (inactive)	> 100 µM (inactive)	> 100 µM (inactive)	2.99 µM (inactive)	> 100 µM (inactive)	–	0.701 µM (active)
CCCOC(=O)C1C(c2ccc(OC)cc2)NC(c2ccc(OC)cc2)C(C(=O)OCCC)S1(=O)=O (stereo not given)	> 10 µM (inactive)	> 100 µM (inactive)	> 10 µM (inactive)	> 10 µM (inactive)	> 10 µM (inactive)	> 10 µM (inactive)	> 10 µM (inactive)	> 10 µM (inactive)	> 10	> 10 µM (inactive)	> 10 µM (inactive)	> 10 µM (inactive)	> 10 µM (inactive)	> 10 µM (inactive)	> 10 µM (inactive)	> 10 µM (inactive)	> 10 µM (inactive)	> 10 µM (inactive)	–	–
O=C1C=CC(=C(c2ccccc2)c2ccc(O)cc2)C=C1	19.4 µM (inactive)	–	16.9 µM (inactive)	19.4 µM (inactive)	20.7 µM (inactive)	17.3 µM (inactive)	14.9 µM (inactive)	24.2 µM (inactive)	14.2	16.1 µM (inactive)	21.9 µM (inactive)	16.9 µM (inactive)	13.7 µM (inactive)	11.5 µM (inactive)	15.8 µM (inactive)	19.5 µM (inactive)	14.8 µM (inactive)	18.7 µM (inactive)	6.03 µM (inactive)	–
CSc1nc2c(c(=O)n1C)N=C(c1ccc([N+](=O)[O-])cc1)CC(c1ccccc1)N2 (stereo not given)	95.9 µM (inactive)	> 100 µM (inactive)	> 100 µM (inactive)	84.3 µM (inactive)	> 100 µM (inactive)	> 100 µM (inactive)	> 100 µM (inactive)	> 100 µM (inactive)	–	> 100 µM (inactive)	> 100 µM (inactive)	> 100 µM (inactive)	48.8 µM (inactive)	> 100 µM (inactive)	> 100 µM (inactive)	> 100 µM (inactive)	> 100 µM (inactive)	> 100 µM (inactive)	> 100 µM (inactive)	–
CC(C)(C)OC(=O)N1CCCC1C(=O)NCCNc1ccc(NCCNC(=O)C2CCCN2C(=O)OC(C)(C)C)c2c1C(=O)c1ccccc1C2=O (stereo not given)	15.4 µM (inactive)	19.7 µM (inactive)	14.5 µM (inactive)	12.2 µM (inactive)	13.7 µM (inactive)	18.5 µM (inactive)	14.4 µM (inactive)	15.8 µM (inactive)	13.9	14.3 µM (inactive)	15.4 µM (inactive)	5.83 µM (inactive)	13 µM (inactive)	0.112 µM (active)	20.7 µM (inactive)	18.5 µM (inactive)	–	14.8 µM (inactive)	13 µM (inactive)	–
C=CCN(N=O)C(=O)NCCCCC(NC(C)=O)C(=O)NCc1ccccc1 (stereo not given)	> 100 µM (inactive)	> 100 µM (inactive)	> 100 µM (inactive)	> 100 µM (inactive)	> 100 µM (inactive)	> 100 µM (inactive)	> 100 µM (inactive)	> 100 µM (inactive)	> 100	> 100 µM (inactive)	> 100 µM (inactive)	> 100 µM (inactive)	> 100 µM (inactive)	> 100 µM (inactive)	72.6 µM (inactive)	42.5 µM (inactive)	> 100 µM (inactive)	> 100 µM (inactive)	–	–
O=C(/C(=C\c1ccccc1)CN1CCOCC1)c1ccc(Br)cc1	1.75 µM (inactive)	3.61 µM (inactive)	2.59 µM (inactive)	1.87 µM (inactive)	2.05 µM (inactive)	1.88 µM (inactive)	3.25 µM (inactive)	1.78 µM (inactive)	1.93	1.76 µM (inactive)	6.27 µM (inactive)	1.61 µM (inactive)	1.28 µM (inactive)	1.91 µM (inactive)	1.92 µM (inactive)	6.68 µM (inactive)	1.8 µM (inactive)	1.57 µM (inactive)	–	–
c1ccc2c(c1)n1nnnc1c1nnnn21	> 100 µM (inactive)	> 100 µM (inactive)	> 100 µM (inactive)	> 100 µM (inactive)	> 100 µM (inactive)	> 100 µM (inactive)	> 100 µM (inactive)	> 100 µM (inactive)	> 100	> 100 µM (inactive)	> 100 µM (inactive)	92.7 µM (inactive)	12.6 µM (inactive)	> 100 µM (inactive)	> 100 µM (inactive)	> 100 µM (inactive)	> 100 µM (inactive)	83.4 µM (inactive)	–	–
CC(NC(=O)Cc1ccc(OP(=O)(OCc2ccc([N+](=O)[O-])o2)N(C)CCCCCl)cc1)c1ccc(OCC2CCCCC2)c(C(N)=O)c1 (stereo not given)	3.56 µM (inactive)	3.08 µM (inactive)	1.67 µM (inactive)	2.4 µM (inactive)	1.39 µM (inactive)	2.91 µM (inactive)	1.63 µM (inactive)	2.12 µM (inactive)	2.39	1.65 µM (inactive)	2.65 µM (inactive)	3.6 µM (inactive)	2.25 µM (inactive)	1.6 µM (inactive)	2.26 µM (inactive)	2.48 µM (inactive)	2.58 µM (inactive)	2.92 µM (inactive)	–	1.18 µM (inactive)
